According to patent US8912359B2, “Bisbenzamidines for the treatment of pneumonia” (University of Cincinnati, priority 2003, dated 2014):
In brackets after ≈: the same amount, converted by molar mass. Like-named read-outs stand apart in the source and are kept apart here.

How the values were obtained:
Poly (dA-dT) = experiment: DNA Binding ΔTm, Poly (dA-dT)
Calf thymus DNA = experiment: DNA Binding ΔTm, calf thymus
Pneumocystis = Pneumocystis ATP detection assay; type: cell-based, P. carinii; conditions: for IC50: concentration reducing ATP content of Pneumocystis populations by 50% vs untreated controls, 48 hours exposure (Table 1 title); for Anti-Pneumocystis Activity: semi-qualitative scale from highly active to no activity, based on IC50
Text: An ATP assay system (Cushion, Chen et al., 1997; Chen & Cushion, 1994; Collins & Cushion, 2001) was used to evaluate bisbenzamidine analogues as potential therapeutic targets for treatment of pneumonia, particularly that caused by species in the genus Pneumocystis. […]. Development of these compounds could provide new and novel treatment choices for Pneumocystis pneumonia.
A series of novel bisbenzamidines linked by either a rigid (for instance, a phenylene diamide) or a flexible (for instance, a propyl diamide) core are described. Such compounds may be used for the treatment of infections, such as pneumonia and for instance, pneumonia caused by Pneumocystis.
The structure-activity relationships for the piperazine-linked bisbenzamidines and the toxicities of each compound in three different mammalian cell lines are shown in the following tables. Compounds are ranked in order of the lowest concentration necessary to reduce the ATP content of Pneumocystis populations by 50% (i.e., the IC50) compared to untreated control populations. Note that the IC50 values are expressed on a microgram per milliliter and micromolar basis. […];

WI-38 = experiment: toxicity to WI-38 cell line (ATP system)
Text: (§1) Two transformed cell lines derived from two different organ systems and a primary cell line were chosen for evaluation of the relative toxicity of each compound. […] The Hep-G2 cell line is an epithelial cell line derived from a human hepatocellular carcinoma, and WI-38 is a human diploid cell line derived from normal embryonic (3 months of gestation) lung tissue.

[1] = test system: A549 lung epithelial cells
Text: as §1

DNA Binding ΔTm Poly (dA-dT) (Poly (dA-dT))	SMILES	DNA Binding ΔTm Calf thymus (Calf thymus DNA)	IC50 (Pneumocystis)	Anti-Pneumocystis Activity (Pneumocystis)	toxicity in WI-38 line (WI-38)	toxicity in A549 line [1]	toxicity in A549 line ([1]; human)	Anti-Pneumocystis Activity (Pneumocystis; listed as —C2H5)
22.5 °C	CCCCCNC(=N)c1ccc(N2CCN(c3ccc(C(=N)NCCCCC)cc3)CC2)cc1 [compound 2, 4,4′-(1,4-piperazinediyl)bis(N-pentylbenzenecarboximidamide)]	16.9 °C		Highly Active				
10.1 °C	CCCCCCNC(=N)c1ccc(N2CCN(c3ccc(C(=N)NCCCCCC)cc3)CC2)cc1 [compound 3, 4,4′-(1,4-piperazinediyl)bis(N-hexylbenzenecarboximidamide)]	10.7 °C		Highly Active				
8.5 °C	CCCCCCCNC(=N)c1ccc(N2CCN(c3ccc(C(=N)NCCCCCCC)cc3)CC2)cc1 [compound 5, 4,4′-(1,4-piperazinediyl)bis(N-heptylbenzenecarboximidamide)]	8.7 °C		Very Marked	without toxicity	without toxicity		
	CCCCCCCCNC(=N)c1ccc(N2CCN(c3ccc(C(=N)NCCCCCCCC)cc3)CC2)cc1 [compound 11, 4,4′-(1,4-piperazinediyl)bis(N-octylbenzenecarboximidamide)]	4.2 °C		Marked				
2.7 °C	CCCCCCCCCNC(=N)c1ccc(N2CCN(c3ccc(C(=N)NCCCCCCCCC)cc3)CC2)cc1 [compound 14, 4,4′-(1,4-piperazinediyl)bis(N-nonylbenzenecarboximidamide)]	1.3 °C		Marked				
0.0 °C	CCCCCCCCCCCCNC(=N)c1ccc(N2CCN(c3ccc(C(=N)NCCCCCCCCCCCC)cc3)CC2)cc1 [compound 15, 4,4′-(1,4-piperazinediyl)bis(N-dodecylbenzenecarboximidamide)]	0.6 °C		Marked			not the A549 line	
18.6 °C	CCNC(=N)c1ccc(N2CCN(c3ccc(C(=N)NCC)cc3)CC2)cc1 [compound 16, 4,4′-(1,4-piperazinediyl)bis(N-ethylbenzenecarboximidamide)]	15.3 °C	0.542 µg/mL (≈ 1.43 µM)	marked				Marked
	CCCCCCCCCCNC(=N)c1ccc(N2CCN(c3ccc(C(=N)NCCCCCCCCCC)cc3)CC2)cc1 [compound 18, 4,4′-(1,4-piperazinediyl)bis(N-decylbenzenecarboximidamide)]	1.3 °C		Marked				

SMILES	DNA Binding ΔTm Poly (dA-dT) (Poly (dA-dT))	DNA Binding ΔTm Calf thymus (Calf thymus DNA)	IC50 (Pneumocystis)	Anti-Pneumocystis Activity (Pneumocystis)	toxicity in WI-38 line (WI-38)	toxicity in A549 line [1]	toxicity in A549 line ([1]; human)	Anti-Pneumocystis Activity (Pneumocystis; listed as —C2H5)
N=C(N)c1ccc(OCCCCCOc2ccc(C(=N)N)cc2)cc1 [Pentamidine, reference compound]	20.6 °C	11.1 °C	0.3 µg/mL (≈ 0.881 µM)	marked				
